According to PubChem BioAssay (NCI):
“And” between values parts separate entries of the source, which are not always exact repeats. Equal values may be shown once.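 48-hour exposure; five concentrations; linearly interpolated endpoints. Abbreviation: GI50, concentration required for 50% inhibition of growth. TGI: concentration producing complete growth inhibition.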 Where a SMILES comes first, the peptide text is derived from it. [ ]: non-standard residue; d: D form. The star is where a group is joined. NMeF = CN[CH](Cc1ccccc1)C(=O)O; NMeV = CN[CH](C(=O)O)C(C)C; Boc = CC(C)(C)OC(=O)*

test system: RXF 393 renal; assay: DTP human tumour cell line panel, 48 h

| SMILES | TGI [µM] |
| --- | --- |
| Cn1c2c(c3ccccc31)CC1c3c(c4ccccc4n3C)CC21 (stereo not drawn) | > 100 |

test system: DLD-1 colon; assay: DTP human tumour cell line panel, 48 h

| SMILES | TGI [µM] |
| --- | --- |
| C=CCCN1CCc2c([nH]c3ccccc23)C1C(=O)O (stereo not drawn) | > 100 |
| COc1cc(/C=C(\C#N)C(N)=O)cc(Br)c1O | > 100 |
| CC1NC(=O)CC(c2ccccc2)N(N=O)C1c1ccccc1 (stereo not drawn) | > 100 |
| CCOC(=O)CC1(C(=O)OCC)c2[nH]c3ccccc3c2CCN1Cc1ccccc1 (stereo not drawn) | 89.4 |
| C1=CC2SSSC2C1 (stereo not drawn) | > 100 |
| O=P(Nc1ccc(Cl)cc1)(Oc1ccccc1)N(CCCl)CCCl (stereo not drawn) | > 100 |

test system: SNB-78 CNS; assay: DTP human tumour cell line panel, 48 h

| SMILES | TGI [µM] |
| --- | --- |
| C=CCCN1CCc2c([nH]c3ccccc23)C1C(=O)O (stereo not drawn) | > 100 |
| COc1cc(/C=C(\C#N)C(N)=O)cc(Br)c1O | > 100 |
| CC1NC(=O)CC(c2ccccc2)N(N=O)C1c1ccccc1 (stereo not drawn) | > 91.8 |
| CCOC(=O)CC1(C(=O)OCC)c2[nH]c3ccccc3c2CCN1Cc1ccccc1 (stereo not drawn) | 81.2 |
| O=P(Nc1ccc(Cl)cc1)(Oc1ccccc1)N(CCCl)CCCl (stereo not drawn) | > 100 |

test system: SN12C renal; assay: DTP human tumour cell line panel, 48 h

| SMILES | TGI | GI50 |
| --- | --- | --- |
| CCN(CC)C(=O)Cn1c(C)cc2ccccc21 | > 100 µM |  |
| CC1(C)NC2C(=O)c3c([nH]c4ccccc34)[C@]3(C)CCC1CC23 (stereo partly drawn) | > 100 µM |  |
| COc1ccc2ccccc2c1/C=C/C(=O)c1ccccc1 | 11 µM |  |
| O=c1[nH]nc(-c2ccccc2)c2[nH]c3c4ccccc4ccc3c12 | > 100 µM |  |
| C=CCCN1CCc2c([nH]c3ccccc23)C1C(=O)O (stereo not drawn) | > 100 µM |  |
| O=C1C(CN2CCCCC2)CCC1CN1CCCCC1 (stereo not drawn) | 45.5 µM |  |
| c1ccc2c(c1)ccn2CCc1c[nH]c2ccccc12 | > 10 µM |  |
| COc1cc(/C=C(\C#N)C(N)=O)cc(Br)c1O | > 100 µM | > 100 µM and 34 µM |
| COc1cc(C(=O)N(Cc2cccnc2)C(=S)N(Cc2cccnc2)C(=O)c2cc(OC)c(OC)c(OC)c2)cc(OC)c1OC | > 100 µM |  |
| COc1cc(CNCc2cc(OC)c(OC)c(OC)c2)cc(OC)c1OC | > 10 µM |  |
| Oc1c(CN2CCOCC2)ccc2cccnc12 | > 10 µM |  |
| CC1NC(=O)CC(c2ccccc2)N(N=O)C1c1ccccc1 (stereo not drawn) | > 100 µM |  |
| CCOCc1nc2c(OC)cc(-c3nc4ccc(N5CCN(C)CC5)cc4[nH]3)c(OC)c2[nH]1 | > 100 µM |  |
| O=C(N/N=C\c1cccc2c([N+](=O)[O-])cccc12)Nc1ccccc1 | 18.9 µM |  |
| CCCCN1C(=O)N(c2ccc(OCC)cc2)C2N(CCCC)C1C(C)(C)C2(C)C (stereo not drawn) | > 100 µM |  |
| CON(C)C(=O)CNC(=O)OCC1c2ccccc2-c2ccccc21 | > 100 µM |  |
| O=C(NNC(=S)Nc1cccc(Cl)c1)c1cc(-c2ccccc2)nc2ccccc12 | 37.1 µM |  |
| Cc1cn(C2CC(N(O)Cc3ccccc3)C(CO[Si](C)(C)C(C)(C)C)O2)c(=O)[nH]c1=O (stereo not drawn) | 30.6 µM and 29.7 µM |  |

| SMILES | TGI | GI50 |
| --- | --- | --- |
| Cc1ccc(-c2c(C#N)c(-c3ccc(Cl)cc3)c(C#N)c(=O)n2NS(=O)(=O)c2ccc(C)cc2)cc1 | > 100 µM |  |
| COc1cc(Cn2c3c(c4cc(O)ccc42)Cc2ccccc2C3=O)cc(OC)c1 | 57.3 µM |  |
| Cc1cc(S(=O)(=O)N=C2N(Cc3ccccc3)CCN2Cc2ccccc2)c(S)cc1Cl | > 100 µM |  |
| CCCN1CCC(=O)N(CCC(F)(F)C(F)(F)C(F)(F)C(F)(F)C(F)(F)C(F)(F)F)C1=S | > 100 µM |  |
| CSc1ccc2c(cc1=O)[C@@H](NC(=O)c1ccc(N)cc1)CCc1cc(O)c(O)c(O)c1-2 | > 75 µM and 90.1 µM |  |
| CCOC(=O)CC1(C(=O)OCC)c2[nH]c3ccccc3c2CCN1Cc1ccccc1 (stereo not drawn) | 27.8 µM |  |
| CC(C)C(NC(=O)OC(C)(C)C)C(=O)N(C)C(Cc1ccccc1)C(=O)N(C)C(C(=O)O)C(C)C (stereo not drawn) (Boc-Val-[NMeF]-[NMeV]-OH; configuration not given here) | > 100 µM |  |
| O=Cc1c(C(=O)O)[nH]c(=O)[nH]c1=O | > 100 µM |  |
| N=C(N)c1ccc(C(NC(=O)CNS(=O)(=O)c2ccc3ccccc3c2)P(=O)(Oc2ccccc2)Oc2ccccc2)cc1 (stereo not drawn) | > 100 µM |  |
| Nc1cc2[nH]c(=O)c(=O)[nH]c2cc1N | > 100 µM |  |
| O=C1C=C(C2=CC(=O)C(=O)c3ccccc32)c2ccccc2C1=O | > 100 µM |  |
| C(=Nc1ccc(-c2nc3ccccc3[nH]2)cc1)c1cccs1 | > 100 µM |  |
| C1=CC2SSSC2C1 (stereo not drawn) | > 100 µM |  |
| C[N+](C)(C)CC1CCCCCCCCCCC1=O (stereo not drawn) | > 100 µM |  |
| CCN(CC)CCNc1nc2ccc([N+](=O)[O-])cc2[n+]([O-])n1 | 54.9 µM |  |
| Cn1c2c(c3ccccc31)CC1c3c(c4ccccc4n3C)CC21 (stereo not drawn) | > 100 µM |  |
| O=P(Nc1ccc(Cl)cc1)(Oc1ccccc1)N(CCCl)CCCl (stereo not drawn) | > 100 µM |  |

test system: SNB-75 CNS; assay: DTP human tumour cell line panel, 48 h

| SMILES | TGI [µM] |
| --- | --- |
| CCN(CC)C(=O)Cn1c(C)cc2ccccc21 | > 100 |
| CC1(C)NC2C(=O)c3c([nH]c4ccccc34)[C@]3(C)CCC1CC23 (stereo partly drawn) | > 100 |
| COc1ccc2ccccc2c1/C=C/C(=O)c1ccccc1 | 4.01 |
| O=c1[nH]nc(-c2ccccc2)c2[nH]c3c4ccccc4ccc3c12 | > 100 |
| C=CCCN1CCc2c([nH]c3ccccc23)C1C(=O)O (stereo not drawn) | > 100 |
